Data from patent publication EP2980218A1, “Aptamer thrombin complex for use as an antidote to direct acting thrombin inhibitors” (Rheinische Friedrich-Wilhelms-Universität Bonn, priority 2014, dated 2016).

What was measured:
[1] = anticoagulation monitoring (anti-FIIa activity) after oral dabigatran in mice; type: in vivo; conditions: oral administration of 1 mg/g body weight dabigatran
Protocol: The in-vivo antidote properties of aptathrombin were studied in a mouse model after oral administration of 1 mg/g body weight dabigatran.

[2] = humans, after dabigatran administration; cited from earlier work

time to peak level of anti-FIIa activities [1]: 3 to 4 h
Substance: N-[2-(4-Aminoiminomethylphenylamino)-1-methyl-1H-benzimidazol-5-ylcarbonyl]-N-(2-pyridyl)-beta-alanine [dabigatran]
plasma concentration, upper limit of the peak level [2]: 280 ng/mL
time at which peak level is reached [2]: 2 to 4 h
